In US20050238732A1, “Carbonated germicide with pressure control” (priority 2003, published 2005):
Read-outs that look alike come from different tables or passages of the source.

Tests used:
Bacillus subtilis spores [1] = assay: Spore suspension test, killing of Bacillus subtilis spores; format: cell-based; settings: for Log Reduction/mL (3 hr, 20° C., pH = 8): Table 4B; for Log Reduction/mL (20° C., 4 hrs): [NaHCO3], 0 mM
[2] = Storage stability of phthalaldehyde solution (loss by Cannizzaro reaction); format: physicochemical; settings: stored about 11 weeks
Excerpt: Overall, the Cannizzaro reaction generally leads to loss of phthalaldehyde and a decrease in the germicidal efficacy of the solution. While a pH of from 6 to 10, or 7.5 to 9 generally enhances the efficacy of the phthalaldehyde-carbonate solution, the higher or alkaline pH also generally promotes the Cannizzaro reaction. […] However, about 14% of the phthalaldehyde may be lost if the same solution is stored for about 11 weeks at a pH of 9, at room temperature. Even more of the phthalaldehyde may be converted if the storage period is longer, if the temperature is higher, or if the pH is higher than 9.

[3] = pH range of 3 to 9, single component, per the '999 patent; cited from earlier work
[4] = cited from earlier work
Bacillus subtilis spores [5] = settings: cited from earlier work
[6] = tested on: Clostridium sporogenes spores; settings: cited from earlier work
Mycobacterium bovis BCG = settings: at least 0.25% by weight phthalaldehyde as the sole active ingredient, 20° C.; cited from earlier work
[7] = Air in headspace
Procedure: (§1) Experiments were conducted to determine the pressures of several bicarbonate solutions with different bicarbonate concentration, starting pH, and at different temperatures, with air initially in the headspace of the container. Several bicarbonate solutions of different concentration were prepared. The pH of the solutions were adjusted by sparging the solutions with carbon dioxide to achieve a starting pH. About 1030 mL of each solution was introduced into a different 1145 mL glass bottle that was equipped with a thermometer and a pressure sensor. The headspace of each bottle was flushed with air for about one minute and then the bottle was sealed with a stopper. […] The solutions were stirred at about 20° C. until all pressures stabilized. The pressures were recorded. The solutions were then heated in a water bath to 40° C., and then to 55° C., and the pressures were recorded at each of these temperatures. The experiments were conducted at sea level.

[8] = CO2 in headspace
Procedure: as §1
Experiments were conducted to determine the pressures of sealed containers including bicarbonate solutions when the air initially present in the headspace of the containers was replaced with carbon dioxide. […] The experiments were conducted at sea level.

[9] = Procedure: A 100 mL round-bottom flask having a capacity of about 135 mL was equipped with a septum, a stirrer bar, and a pressure sensor. […] About 65 mL of a bicarbonate solution having a particular concentration and pH was injected into the flask. Excess pressure was released through a needle on the septum. Carbon dioxide was sparged through the solution to obtain the listed pH and then the solution was sealed in the container with a stopper. The solution was stirred at a temperature of about 20° C. until a stable pressure was achieved. The procedure was repeated for other air partial pressures and bicarbonate solutions. The experiments were conducted at sea level.
[10] = Table 3, 20° C., 24 hr exposure, no pH control
[11] = Table 1, 20° C., 8 hr exposure, no pH control
[12] = Table 2, 20° C., 8 hr exposure, no pH control
[13] = Table 2, 20° C., 24 hr exposure, no pH control
[14] = Table 3, 20° C., 8 hr exposure, no pH control
[15] = 0.25% phthalaldehyde as the sole active ingredient, 20° C.
[16] = Table 2, 20° C., 4 hr exposure, no pH control

## [F-].[Li+] [100 mM LiF, lithium fluoride]
Bacillus subtilis spores [1]; [10]
  Log Reduction/mL (20° C.) 24 hr: 0.0

## [F-].[Na+] [1000 mM NaF, sodium fluoride]
Bacillus subtilis spores [1]; [11]
  Log Reduction/mL (20° C.) 8 hr: 0.0
Bacillus subtilis spores [1]; [12]
  Log Reduction/mL (20° C.) 8 hr: 0.0
Bacillus subtilis spores [1]; [13]
  Log Reduction/mL (20° C.) 24 hr: 0.0

## [Cl-].[Na+] [1000 mM NaCl, sodium chloride]
Bacillus subtilis spores [1]; [13]
  Log Reduction/mL (20° C.) 24 hr: 0.2

## [F-].[K+] [1000 mM KF, potassium fluoride]
Bacillus subtilis spores [1]; [14]
  Log Reduction/mL (20° C.) 8 hr: 0.0
Bacillus subtilis spores [1]; [10]
  Log Reduction/mL (20° C.) 24 hr: 0.1
Bacillus subtilis spores [1]; 20° C.
  Log Reduction/mL (3 hr, 20° C., pH = 8): 0

## O=Cc1ccccc1C=O [0.3% OPA, 1,2-benzenedicarboxaldehyde]
Bacillus subtilis spores [1]; Table 1, 20° C., 4 hr exposure, no pH control
  Log Reduction/mL (20° C.) 4 hr: 0.5
Bacillus subtilis spores [1]; [11]
  Log Reduction/mL (20° C.) 8 hr: 0.6
Bacillus subtilis spores [1]; Table 1, 20° C., 24 hr exposure, no pH control
  Log Reduction/mL (20° C.) 24 hr: 2.9
Bacillus subtilis spores [1]; [12]
  Log Reduction/mL (20° C.) 8 hr: ~0.6
Bacillus subtilis spores [1]; [14]
  Log Reduction/mL (20° C.) 8 hr: ~0.6
Bacillus subtilis spores [1]; [10]
  Log Reduction/mL (20° C.) 24 hr: ~2.9
Bacillus subtilis spores [1]; Table 4A, pH 7.0, 20° C., 4 hr
  Log Reduction/mL (20° C.) 4 hr: 0.5
Bacillus subtilis spores [1]; Table 4A, pH 7.0, 20° C., 8 hr
  Log Reduction/mL (20° C.) 8 hr: 0.6
Bacillus subtilis spores [1]; Table 4A, pH 7.0, 20° C., 24 hr
  Log Reduction/mL (20° C.) 24 hr: 2.9
Bacillus subtilis spores [1]; Table 7, 20° C., 2 hr
  Log Reductions/mL (20° C.) 2 hr: 0.4
Bacillus subtilis spores [1]; Table 7, 20° C., 4 hr
  Log Reductions/mL (20° C.) 4 hr: 0.5
Bacillus subtilis spores [1]; Table 7, 20° C., 6 hr
  Log Reductions/mL (20° C.) 6 hr: 0.7
Bacillus subtilis spores [1]; Table 7, 20° C., 8 hr
  Log Reductions/mL (20° C.) 8 hr: 0.6
Bacillus subtilis spores [1]; Table 7, 20° C., 24 hr
  Log Reductions/mL (20° C.) 24 hr: 2.9
Bacillus subtilis spores [1]; Table 10, 20° C., 4 hr
  Log Reductions/mL (20° C.) 4 hr: 1.5
Bacillus subtilis spores [1]; Table 10, 20° C., 24 hr
  Log Reductions/mL (20° C.) 24 hr: 2.9
Bacillus subtilis spores [1]; Table 13, 20° C.
  Log Reduction/mL (20° C., 4 hrs): 0.5
Bacillus subtilis spores [1]; Table 14, 20° C.
  Log Reduction/mL (20° C., 4 hrs): 0.5
Bacillus subtilis spores [1]; Table 15, 20° C.
  Log Reduction/mL (20° C., 4 hrs): 0.5
[2]; pH of 7 or lower, room temperature to about 40° C.
  loss of phthalaldehyde on storage: without a noticeable loss
[2]; pH of 9, room temperature
  phthalaldehyde lost on storage: about 14%
[3]
  stability of compositions containing phthalaldehyde: excellent stability
[4]
  solubility in water: about 5 % by weight
Bacillus subtilis spores [5]; [15]
  time for sporicidal activity: 24 h
Bacillus subtilis spores [5]; 1.0% phthalaldehyde
  time in which sterilization is achieved: 10 h
[6]; [15]
  time for sporicidal activity: 24 h
[6]; 1.0% phthalaldehyde
  time in which sterilization is achieved: 10 h
Mycobacterium bovis BCG
  time to kill all Mycobacterium bovis BCG in contact with the composition: ≤ 10 min

## O=C([O-])O.[Na+] [NaHCO3, sodium bicarbonate]
[7]; pH 7.3, [NaHCO3] 0.02M
  Pressure Above Atmospheric Pressure (mmHg) 20° C.: 72 mmHg
  Pressure Above Atmospheric Pressure (mmHg) 40° C.: 208 mmHg
  Pressure Above Atmospheric Pressure (mmHg) 55° C.: 378 mmHg
[7]; pH 7.4, [NaHCO3] 0.3M
  Pressure Above Atmospheric Pressure (mmHg) 20° C.: 250 mmHg
  Pressure Above Atmospheric Pressure (mmHg) 40° C.: 570 mmHg
  Pressure Above Atmospheric Pressure (mmHg) 55° C.: 862 mmHg
[7]; pH 7.8, [NaHCO3] 0.3M
  Pressure Above Atmospheric Pressure (mmHg) 20° C.: 134 mmHg
  Pressure Above Atmospheric Pressure (mmHg) 40° C.: 322 mmHg
  Pressure Above Atmospheric Pressure (mmHg) 55° C.: 542 mmHg
[8]; pH 7.2, [NaHCO3] 0.3M
  Pressure Below (−) or Above (+) Atmospheric Pressure (mmHg) 20° C.: −158 mmHg
  Pressure Below (−) or Above (+) Atmospheric Pressure (mmHg) 40° C.: 202 mmHg
  Pressure Below (−) or Above (+) Atmospheric Pressure (mmHg) 55° C.: 532 mmHg
[8]; pH 7.3, [NaHCO3] 0.02M
  Pressure Below (−) or Above (+) Atmospheric Pressure (mmHg) 20° C.: −508 mmHg
  Pressure Below (−) or Above (+) Atmospheric Pressure (mmHg) 40° C.: −348 mmHg
  Pressure Below (−) or Above (+) Atmospheric Pressure (mmHg) 55° C.: −202 mmHg
[8]; pH 7.4, [NaHCO3] 0.3M
  Pressure Below (−) or Above (+) Atmospheric Pressure (mmHg) 20° C.: −290 mmHg
  Pressure Below (−) or Above (+) Atmospheric Pressure (mmHg) 40° C.: 0 mmHg
  Pressure Below (−) or Above (+) Atmospheric Pressure (mmHg) 55° C.: 274 mmHg
[8]; pH 7.8, [NaHCO3] 0.3M
  Pressure Below (−) or Above (+) Atmospheric Pressure (mmHg) 20° C.: −440 mmHg
  Pressure Below (−) or Above (+) Atmospheric Pressure (mmHg) 40° C.: −246 mmHg
  Pressure Below (−) or Above (+) Atmospheric Pressure (mmHg) 55° C.: −50 mmHg
[9]; initial air 440 / CO2 320 mmHg, NaHCO3 0.3 mole/L, pH 7.4, about 20° C.
  Final Pressure at Equilibrium (mmHg): 758 mmHg
[9]; initial air 674 / CO2 86 mmHg, NaHCO3 0.3 mole/L, pH 8.0, about 20° C.
  Final Pressure at Equilibrium (mmHg): 760 mmHg
[9]; initial air 726 / CO2 34 mmHg, NaHCO3 0.05 mole/L, pH 8.0, about 20° C.
  Final Pressure at Equilibrium (mmHg): 756 mmHg
[9]; initial air 740 / CO2 20 mmHg, NaHCO3 0.05 mole/L, pH 7.4, about 20° C.
  Final Pressure at Equilibrium (mmHg): 758 mmHg

## [I-].[K+] [1000 mM KI, potassium iodide]
Bacillus subtilis spores [1]; 20° C.
  Log Reduction/mL (3 hr, 20° C., pH = 8): 0

## [I-].[Na+] [1000 mM Nal, sodium iodide]
Bacillus subtilis spores [1]; [16]
  Log Reduction/mL (20° C.) 4 hr: 0.0
Bacillus subtilis spores [1]; [12]
  Log Reduction/mL (20° C.) 8 hr: 0.0
Bacillus subtilis spores [1]; [13]
  Log Reduction/mL (20° C.) 24 hr: 0.1

## [Br-].[Na+] [1000 mM NaBr, sodium bromide]
Bacillus subtilis spores [1]; [16]
  Log Reduction/mL (20° C.) 4 hr: 0.0
Bacillus subtilis spores [1]; [13]
  Log Reduction/mL (20° C.) 24 hr: 0.1
